Experimental data as given in US20220144823A1, “PYRAZOLOPYRIDINE DERIVATIVES AS INHIBITORS OF PASK” (Galapagos NV, priority 2019, published 2022).

Tests used:
human PASK [1] = target: T1, human PASK (Homo sapiens, UniProt Q96RG2); assay: 33P radioactive kinase assay; format: biochemical; settings: 33P radioactive PASK kinase assay, 10 μM ATP, ZIPtide 1 μM
T1 construct: purchased ThermoFisher Scientific PR7013A
Outline: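 Human PASK phosphorylation of ZIPtide peptide was measured by incorporation from [^33P]-ATP plus unlabelled ATP, with a 10-point, 1/5 dilution series from 0.2 or 2 mM DMSO stocks and 1% DMSO final. Reactions were stopped with phosphoric acid, filter-harvested, washed and scintillation-counted. Percentage inhibition gave dose–response curves and averaged IC50s.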

human PASK [2] = target: T1, human PASK; assay: ADP-Glo kinase assay; format: biochemical; settings: ADPGlo PASK kinase assay, 25 μM ATP, ZIPtide 25 μM
Outline: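 Human recombinant PASK phosphorylating ZIPtide peptide with ATP, 120 min at RT; compounds in 10-point 1/5 dilution series, 1% DMSO final. ADP formed measured by ADP-Glo luminescence after ATP depletion; percent inhibition fitted to dose-response curves for averaged IC50.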

[3] = target: T2, autophosphorylation of PASK at position Thr307 in Hek293 cells overexpressing PASK (Homo sapiens, UniProt Q96RG2); assay: PASK autophosphorylation ELISA assay; format: cell-based; settings: 24 h, ELISA readout
T2 construct: expressed in transfected cells; host or cells: Hek293
Method: The compounds of the invention are profiled in a cellular assay to determine their capacity to reduce the autophosphorylation levels of PASK at position Thr307 in Hek293 cells overexpressing PASK, using an ELISA-based readout.
At day 1, a 96-well cell assay plate is coated with poly-D-lysine (50 μL/well of a 0.05 mg/mL solution in PBS) and incubated for 1 h at 37° C. The plate is subsequently washed once with PBS and stored dry at RT until further use. Hek293 cells are transfected with a pcDNA3.1-PASK(FL,WT)-FLAG construct (SEQ ID1) and seeded in culture medium (DMEM+10% FBS) in a poly-D-lysine coated 96-well plate (0.3 μL JetPEI DNA transfection reagent (Polyplus-transfection SA, Cat #101-40), 10 ng construct and 90 ng pBluescript, 60000 cells per well). […] The cell plate is incubated overnight at 37° C., 5% CO2.
At day 2, the medium of the assay plate is removed and 100 μL of fresh medium (DMEM+10% FBS) is added to the plate. Cell plate is further incubated overnight at 37° C., 5% CO2. This to allow further expression of PASK protein.
At day 3, the medium is removed and replaced with 100 μL of serum free medium (DMEM). Test compound is added to the plate (8 points concentration curve with 1/3 dilution steps starting from 30 μM final concentration in 0.3% DMSO final). In the positive and negative control wells of the plate, 0.3% DMSO final is added. For each tested condition, duplicates are made for ELISA readout. Cell plate is incubated 24 h at 37° C., 5% CO2.
At day 4, the medium is removed and the plate is washed once with 100 μL/well PBS. Cells are lysed by adding 50 μL/well western blot lysis buffer (20 mM Tris pH 7.5, 150 mM NaCl and 1% Triton) to the plate. The assay plate is stored at −80° C. and thawed to perform the ELISA readout.
At day 1, the ELISA plate is coated with the mouse anti-FLAG antibody (2 μg/mL diluted in PBS, 100 μL/well) and incubated overnight at 4° C.
At day 2, the plate is washed once with 150 μL/well PBS. 200 μL/well blocking buffer (PBS with 3% BSA) is added and the plate is incubated for 4 h at RT. The plate is washed with 150 μL/well high salt washing buffer (20 mM Na2HPO4, 0.5% Triton X-100, 0.1% SDS, 0.1% BSA and 1 M NaCl) followed by one wash with 150 μL/well low salt washing buffer (20 mM Na2HPO4, 0.5% Triton X-100, 0.1% SDS, 0.1% BSA and 150 mM NaCl). Meanwhile, the cell lysate plate is thawed, two wells of the same condition are pooled (2×50 μL) and added to the ELISA plate. The ELISA plate is incubated overnight at 4° C.
At day 3, the ELISA plate is washed twice with 150 μL/well high salt washing buffer followed by two washes with low salt washing buffer. 100 μL/well detection antibody for pPASK (phospho-Akt substrate (RXXS*/T*) (110B7E) rabbit antibody (Cell Signaling Technology, Inc., Cat #9614) 2 μg/mL diluted in PBS with 3% BSA and 1×Halt™ protease and phosphatase inhibitor cocktail (Thermo Fisher Scientific, Inc., Cat #78447)) is added and incubated for 2 h at RT. The plate is washed twice with high and low salt wash buffer (150 μL/well) and 100 μL/well of an HRP antibody (swine anti-rabbit HRP antibody (Agilent Technologies, Inc., Cat #P039901) diluted 1/2000 in PBS with 3% BSA and 1×Halt™ protease and phosphatase inhibitor cocktail) is added to the plate, followed by an incubation for 1 h at RT in the dark (plate sealed with aluminum seal). The plate is washed twice with high and low salt wash buffer (150 μL/well) and 100 μL/well of SuperSignal™ ELISA Pico Chemiluminescent Substrate (Thermo Fisher Scientific, Inc., Cat #37070)(premix part 1 and part 2, 1/1) is added. The plate is incubated for 4 min at RT before measuring luminescence on the Luminoskan™ Ascent (Thermo Fisher Scientific, Inc.) (PMT default voltage; 100 ms integration time). […]

T1 sequence (Q96RG2 whole entry): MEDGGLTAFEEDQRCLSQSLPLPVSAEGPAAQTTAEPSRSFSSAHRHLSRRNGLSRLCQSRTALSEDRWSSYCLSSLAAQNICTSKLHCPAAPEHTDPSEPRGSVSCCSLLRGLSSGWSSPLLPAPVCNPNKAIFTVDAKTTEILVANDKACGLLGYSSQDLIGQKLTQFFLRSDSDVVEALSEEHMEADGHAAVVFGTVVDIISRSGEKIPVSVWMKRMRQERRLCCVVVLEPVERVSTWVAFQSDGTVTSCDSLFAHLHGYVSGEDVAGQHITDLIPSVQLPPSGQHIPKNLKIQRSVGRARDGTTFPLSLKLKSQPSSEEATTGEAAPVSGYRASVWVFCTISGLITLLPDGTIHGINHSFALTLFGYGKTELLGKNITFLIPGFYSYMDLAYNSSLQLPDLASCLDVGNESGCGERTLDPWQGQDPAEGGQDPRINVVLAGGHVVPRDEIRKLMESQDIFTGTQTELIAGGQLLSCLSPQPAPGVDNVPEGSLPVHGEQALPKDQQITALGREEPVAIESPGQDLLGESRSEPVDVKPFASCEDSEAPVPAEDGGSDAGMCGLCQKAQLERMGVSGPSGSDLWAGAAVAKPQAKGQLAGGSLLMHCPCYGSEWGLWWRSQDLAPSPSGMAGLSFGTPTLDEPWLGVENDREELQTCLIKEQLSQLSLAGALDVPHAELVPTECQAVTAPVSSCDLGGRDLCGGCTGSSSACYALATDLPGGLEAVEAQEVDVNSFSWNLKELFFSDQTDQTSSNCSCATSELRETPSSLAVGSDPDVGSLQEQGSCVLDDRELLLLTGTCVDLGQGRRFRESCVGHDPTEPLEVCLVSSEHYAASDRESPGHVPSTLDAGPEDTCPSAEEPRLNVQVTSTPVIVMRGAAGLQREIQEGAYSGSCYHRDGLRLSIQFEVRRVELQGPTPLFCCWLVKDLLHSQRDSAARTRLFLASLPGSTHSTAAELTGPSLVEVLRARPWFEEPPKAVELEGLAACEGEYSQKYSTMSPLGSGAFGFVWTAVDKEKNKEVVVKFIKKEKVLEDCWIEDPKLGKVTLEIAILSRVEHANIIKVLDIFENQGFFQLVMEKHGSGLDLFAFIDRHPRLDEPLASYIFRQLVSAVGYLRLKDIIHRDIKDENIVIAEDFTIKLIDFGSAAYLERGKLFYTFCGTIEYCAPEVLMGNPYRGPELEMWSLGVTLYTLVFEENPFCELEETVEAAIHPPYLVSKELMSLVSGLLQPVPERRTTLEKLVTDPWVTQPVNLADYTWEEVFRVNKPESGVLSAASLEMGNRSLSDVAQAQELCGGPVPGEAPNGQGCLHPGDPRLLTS
T2 sequence (Q96RG2 with tags, fused parts or gaps): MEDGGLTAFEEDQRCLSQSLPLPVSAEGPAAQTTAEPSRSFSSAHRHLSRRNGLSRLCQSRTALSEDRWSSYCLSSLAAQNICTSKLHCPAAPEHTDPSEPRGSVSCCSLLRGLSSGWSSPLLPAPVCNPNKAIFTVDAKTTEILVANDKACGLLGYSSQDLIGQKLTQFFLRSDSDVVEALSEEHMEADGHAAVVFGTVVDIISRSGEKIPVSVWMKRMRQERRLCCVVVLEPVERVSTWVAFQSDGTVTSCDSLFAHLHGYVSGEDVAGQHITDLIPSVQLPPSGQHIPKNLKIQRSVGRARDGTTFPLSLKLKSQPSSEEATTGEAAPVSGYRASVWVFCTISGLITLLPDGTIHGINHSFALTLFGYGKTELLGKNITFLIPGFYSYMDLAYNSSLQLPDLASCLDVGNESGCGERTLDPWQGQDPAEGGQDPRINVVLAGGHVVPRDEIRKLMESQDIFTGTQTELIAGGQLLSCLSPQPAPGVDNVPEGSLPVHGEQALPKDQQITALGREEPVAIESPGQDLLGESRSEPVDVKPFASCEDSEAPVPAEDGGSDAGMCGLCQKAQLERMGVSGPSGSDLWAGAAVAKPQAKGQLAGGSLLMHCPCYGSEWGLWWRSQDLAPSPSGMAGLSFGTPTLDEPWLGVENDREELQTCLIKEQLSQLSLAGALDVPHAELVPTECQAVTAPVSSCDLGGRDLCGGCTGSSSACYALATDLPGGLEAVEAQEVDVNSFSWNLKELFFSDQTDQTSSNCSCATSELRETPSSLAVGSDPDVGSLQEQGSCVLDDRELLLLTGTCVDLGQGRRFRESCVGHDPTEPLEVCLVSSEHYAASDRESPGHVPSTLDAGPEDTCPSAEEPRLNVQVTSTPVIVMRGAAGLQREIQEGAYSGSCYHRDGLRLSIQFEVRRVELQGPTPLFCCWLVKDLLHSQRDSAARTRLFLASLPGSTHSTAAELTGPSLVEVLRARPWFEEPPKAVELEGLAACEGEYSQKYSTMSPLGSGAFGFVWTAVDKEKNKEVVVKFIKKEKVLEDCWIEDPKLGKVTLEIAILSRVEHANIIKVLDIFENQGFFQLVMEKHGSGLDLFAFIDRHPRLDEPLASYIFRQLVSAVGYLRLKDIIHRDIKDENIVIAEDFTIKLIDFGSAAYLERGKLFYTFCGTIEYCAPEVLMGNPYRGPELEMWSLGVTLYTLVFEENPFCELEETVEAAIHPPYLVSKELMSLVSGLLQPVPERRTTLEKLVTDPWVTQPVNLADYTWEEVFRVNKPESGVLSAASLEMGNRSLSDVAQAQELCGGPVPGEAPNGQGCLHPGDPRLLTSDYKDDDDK

Compound	IC50 (human PASK [1]) [nM]	IC50 (human PASK [2]) [nM]	IC50 [3] [nM]
CCn1nc(C)c(-c2cnn3ccc(-c4cc(C(=O)O)co4)cc23)c1C [Cpd 28, 5-[3-(1-ethyl-3,5-dimethyl-pyrazol-4-yl)pyrazolo[1,5-a]pyridin-5-yl]furan-3-carboxylic acid]	0.01 to 10	0.01 to 10	500 to 1000
COc1nc(-c2ccn3ncc(-c4c(C)nn(C)c4C)c3c2)sc1C(=O)O [Cpd 8, 4-methoxy-2-[3-(1,3,5 trimethylpyrazol-4-yl)pyrazolo[1,5-a]pyridin-5-yl]thiazole-5-carboxylic acid]	0.01 to 10	0.01 to 10	> 5000
Cc1nn(C(F)F)c(C)c1-c1cnn2ccc(-c3cc(C(=O)O)co3)cc12 [Cpd 35, 5-[3-[1-(difluoromethyl)-3,5-dimethyl-pyrazol-4-yl]pyrazolo[1,5-a]pyridin-5-yl]furan-3-carboxylic acid]	0.01 to 10	0.01 to 10	1000 to 5000

Second part, the compound after the results:

IC50 (human PASK [1]) [nM]	IC50 (human PASK [2]) [nM]	IC50 [3] [nM]	Compound
0.01 to 10	0.01 to 10	1000 to 5000	Cc1nn(CC(F)(F)F)c(C)c1-c1cnn2ccc(-c3cc(C(=O)O)co3)cc12 [Cpd 40, 5-[3-[3,5-dimethyl-1-(2,2,2-trifluoroethyl)pyrazol-4-yl]pyrazolo[1,5-a]pyridin-5-yl]furan-3-carboxylic acid]
0.01 to 10	0.01 to 10	0.1 to 500	Cc1nn(C(C)C)c(C)c1-c1cnn2ccc(-c3nc(C4CC4)c(C(=O)O)s3)cc12 [Cpd 39, 4-cyclopropyl-2-[3-(1-isopropyl-3,5-dimethyl-pyrazol-4-yl)pyrazolo[1,5-a]pyridin-5-yl]thiazole-5-carboxylic acid]
